Laboratory results as given in patent US9844531B2, “Methods of maintaining and improving muscle function” (ABBOTT LABORATORIES, priority 2013, dated 2017).
“And” between values parts separate entries of the source, which are not always exact repeats. Identical values can stand only once. “Also recorded” adds a separate entry of the source.

Assays:
VEGF = VEGF level after 8 weeks of dietary EGCg supplementation in aged SD rats (multi-analyte profiling); assay type: in vivo, Sprague Dawley rat; conditions: for VEGF: gastrocnemius muscle lysate, 22 mos at sacrifice
Method: (§1) Example 3 illustrates the effect of 8 weeks of dietary EGCg supplementation on skeletal muscle biomarkers in the aged Sprague Dawley (SD) rat model of sarcopenia. More particularly, gastrocnemius muscle lysates of aged SD rats administered EGCg were analyzed for changes in various skeletal muscle biomarkers.
(§2) In Vivo Study 1—Aged (25 Months Old) Vs. Adult (13 Months Old)-Male SD rats (12 months old; adult rats; Dataset A) and male SD rats (24 months old; aged rats; Dataset B) were purchased from Harlan (Indianapolis, Ind.). The rats were single-housed in cages with hardwood chip bedding and were exposed to a 12-hour light cycle. At receipt, rats had ad libitum access to natural chow (Teklad Global 18% Protein Rodent Diet, catalog #2018S, Harlan) and water during adaptation to the animal facility. Adult rats (Dataset A) were 13 months old at the time of sacrifice, and aged rats (Dataset B) were 25 months old at the time of sacrifice. The right gastrocnemius muscle of the rats were collected and flash-frozen on liquid nitrogen.
(§3) In Vivo Study 2—EGCg Supplementation-Male SD rats (19 months old) were purchased from Harlan (Indianapolis, Ind.). The rats were single-housed in cages with hardwood chip bedding and were exposed to a 12-hour light cycle. At receipt, rats had ad libitum access to purified diet AIN-93M (Research Diets, #D10012M) and water during adaptation to the animal facility. Subsequently, the rats were given ad libitum access to AIN-93M diet supplemented with EGCg-rich (>95%) Teavigo® at 200 mg/kg body weight (Dataset C) for 8 weeks.
(§4) In Vivo Study 3—EGCg Supplementation-Male SD rats (19 months old) were purchased from Harlan (Indianapolis, Ind.). The rats were single-housed in cages with hardwood chip bedding and were exposed to a 12-hour light cycle. At receipt, rats had ad libitum access to purified diet AIN-93M (Research Diets, #D10012M) and water during adaptation to the animal facility. Subsequently, the rats were given ad libitum access to either AIN-93M diet (Dataset D) or AIN-93M diet supplemented with EGCg-rich (>95%) Teavigo® at 50 mg/kg body weight (Dataset E) for 8 weeks.
(§5) Preparation of Muscle Lysates-Whole gastrocnemius muscles were collected from euthanized rats (Dataset A, Dataset B, Dataset C, Dataset D, and Dataset E) and flash-frozen on liquid nitrogen and stored in aluminum foil at −80° C. Subsequently, the gastrocnemius muscle samples were partially thawed on dry ice. Approximately 200 mg of tissue was obtained from each muscle sample by mechanical biopsy punch. The specimens were quickly pulverized on liquid nitrogen and transferred to a 15 mL conical tube and weighed. A mild, detergent-free lysis buffer (9×) was added to the dried specimen in the conical tube. 9× Lysis buffer (50 mM Tris.HCl, 2 mM EDTA, pH 7.4/NaOH) was supplemented with a mammalian protease inhibitor cocktail (Sigma-Aldrich, Inc.) at a 1:200 dilution and stored on ice. The specimens were then vortexed for 10 seconds ahead of homogenization at 25×1000 rpm for approximately 10 seconds. The lysate was vortexed again for 10 seconds and transferred to a 1.5 mL tube. Lysates were centrifuged/clarified for 5 minutes at 11000 rpm at 4° C. in a standard table-top Eppendorf centrifuge. Supernatant (1 mL) was aliquotted to a 2 mL cryotube and stored at −80° C. Lysates were analyzed by Myriad Rules Based Medicine (Austin, Tex.) on the RodentMAP® v.2.0 Antigens and Rat METABOLIC® multi-analyte profiling platforms.

interleukin-1A (IL1A) = assay: IL1A level after 8 weeks of dietary EGCg supplementation in aged SD rats (multi-analyte profiling); assay type: in vivo, Sprague Dawley rat; conditions: for IL1A: gastrocnemius muscle lysate, 22 mos at sacrifice
Method: as §1, §2, §3, §4, §5

gastrocnemius muscle = assay: Gastrocnemius muscle wet weight in the aged SD rat model of sarcopenia; assay type: in vivo, Sprague Dawley rat; conditions: 8 weeks
Method: (§6) Example 4 illustrates the effect of 8 weeks of dietary EGCg supplementation in the aged Sprague Dawley (SD) rat model of sarcopenia. More particularly, the level of myostatin in gastrocnemius muscle lysates of young SD rats (“young”), aged SD rats (“old”), and aged SD rats administered EGCg (“old-EGCg”) was analyzed and compared.
In Vivo Study—EGCg Supplementation-Male SD rats (20 months old) were purchased from Harlan (Indianapolis, Ind.). The rats were single-housed in cages with hardwood chip bedding and were exposed to a 12-hour light cycle. For 1 week, rats had ad libitum access to purified diet AIN-93M (Research Diets, #D10012M) and water during adaptation to the animal facility. The AIN-93M diet typically comprises about 13% (by weight) protein, about 73% (by weight) carbohydrate, and about 4% (by weight) fat, and has an energy content of about 3.77 kcal/gram. Subsequently, the rats were given ad libitum access to AIN-93M diet supplemented with EGCg (>95%) (Teavigo, DSM) at 200 mg/kg body weight (n=12) (“old-EGCg” or “EGCg supplemented”) or control AIN-93 diet (n=11) (“old” or “Control”) for 8 weeks.
as §5, with “rats, weighed,” for “rats (Dataset A, Dataset B, Dataset C, Dataset D, and Dataset E)”, “Lysates were centrifuged/clarified for 5 minutes at 11000 rpm at 4° C. in a standard table-top Eppendorf centrifuge. Supernatant (1 mL) was aliquotted to a 2 mL cryotube and stored at −80° C. Lysates were analyzed by Myriad Rules Based Medicine (Austin, Tex.) on the RodentMAP® v.2.0 Antigens and Rat METABOLIC® multi-analyte profiling platforms.” left out

myostatin = assay: Western blot of myostatin in gastrocnemius muscle lysates of aged SD rats; assay type: in vivo, Sprague Dawley rat; conditions: EGCg 200 mg/kg body weight, 8 weeks
Method: as §6
In Vivo Study—EGCg Supplementation-Male SD rats (20 months old) were purchased from Harlan (Indianapolis, Ind.). The rats were single-housed in cages with hardwood chip bedding and were exposed to a 12-hour light cycle. For 1 week, rats had ad libitum access to purified diet AIN-93M (Research Diets, #D10012M) and water during adaptation to the animal facility. The AIN-93M diet typically comprises about 13% (by weight) protein, about 73% (by weight) carbohydrate, and about 4% (by weight) fat, and has an energy content of about 3.77 kcal/gram. Subsequently, the rats were given ad libitum access to AIN-93M diet supplemented with EGCg (>95%) (Teavigo, DSM) at 200 mg/kg body weight (n=12) (“old-EGCg” or “EGCg supplemented”) or control AIN-93 diet (n=11) (“old” or “Control”) for 8 weeks. […]
Western blot analysis was carried out using anti-myostatin antibodies (Anti-GDF8/Myostatin antibody-Cat.# ab996-Abcam). […] Blots were scanned by densitometry to quantitate differences. […]

[1] = tested on: myostatin in C2C12 myotubes; assay: Western blot of myostatin expression in serum starved C2C12 myotubes; assay type: cell-based; conditions: for Myostatin (% control): 24 hrs, NC = 100, No Serum = 315
Method: Example 5 illustrates the effect of EGCg on expression of myostatin in serum starved C2C12 myotubes. C2C12 myoblasts were passaged in DMEM supplemented with 10% fetal calf serum (FCS), 1% glutamine, and 1% penicillin-streptomycin under an atmosphere of 10% CO2 in air at 37° C. When the myoblasts reached about 80% confluency, they were differentiated into myotubes in DMEM containing 2% horse serum (HS), with medium changes every 2 days. Differentiation was complete in 5-7 days, and the myotubes remained viable for a further 4-5 days.
To induce protein degradation in the myotubes, HS-supplemented DMEM media was replaced with DMEM medium without any serum for 24 hrs, while the negative control group of myotubes (“NC”) was not deprived of serum (i.e., the NC group was re-fed with DMEM media containing 2% HS). Myotubes were treated with EGCg (10 μM and 25 μM) over this serum starvation period. Western blot analysis was carried out on cell lysates as described in Example 4.
FIG. 4 and Table 5 illustrate the expression of myostatin in the non-serum starved control cells (“NC”), serum starved control cells (“No Serum”), and EGCg treated serum starved cells (“No Serum+10 μM EGCg” and “No Serum+25 μM EGCg”). The densitometric analysis was based on three separate blots. Results are expressed as mean plus S.E.M., and statistical analysis between groups was determined by one-way ANOVA followed by Tukey's test. The difference from the “NC” group is indicated as “a” (p<0.01), while the difference from the “No Serum” group is indicated as “b” (p<0.01).

[2] = 8 weeks of dietary EGCg supplementation, aged SD rats
[3] = Dataset C, EGCg 200 mg/kg bw in diet, 8 weeks, Quantitative Assay I
[4] = Dataset E, EGCg 50 mg/kg bw in diet, 8 weeks, Quantitative Assay II
[5] = muscle, EGCg 50 mg/kg bw v. control diet, 22 mos, n.s.
[6] = serum, EGCg 200 mg/kg bw, 8 weeks, n.s.

## epigallocatechin-3-gallate [EGCg]
VEGF; [2]
  level of VEGF in gastrocnemius muscle (in words): significant increase
VEGF; [3]
  VEGF: 229 pg/mL
VEGF; [4]
  VEGF: 479 pg/mL
VEGF; [5]
  VEGF % change Dataset E/Dataset D: −5% (n.s.)
VEGF; [6]
  VEGF, Serum, Dataset C (EGCg Supplemented - 22 mos.) v. Dataset B (25 mos.): −15% (n.s.)
interleukin-1A (IL1A); [2]
  level of IL1A in gastrocnemius muscle (in words): significant decrease
interleukin-1A (IL1A); [3]
  IL1A: 14.3 pg/mL
interleukin-1A (IL1A); [4]
  IL1A: 28.0 pg/mL
interleukin-1A (IL1A); [5]
  IL1A % change Dataset E/Dataset D: −12% (n.s.)
interleukin-1A (IL1A); [6]
  IL1A, Serum, Dataset C (EGCg Supplemented - 22 mos.) v. Dataset B (25 mos.): −8% (n.s.)
Gastrocnemius muscle; EGCg 200 mg/kg body weight
  gastrocnemius muscle wet weight compared to Control rats (in words): significant increase
Gastrocnemius muscle; gastrocnemius, EGCg 200 mg/kg body weight in diet
  Muscle wet weight % change from control: +5.12%
Gastrocnemius muscle; gastrocnemius, EGCg 200 mg/kg body weight in diet, n=12, p < 0.05 compared to Control
  Muscle Wet Weight (grams): 3.00 ± 0.03 grams
myostatin; western blot
  intramuscular myostatin levels compared to old rats without EGCg (in words): decrease
myostatin; Old-EGCg rats (22 months old), single rats (ID 3, 6, 9), densitometry, Old rats 700-800
  Myostatin (% cage control): 80 % cage control and 140 % cage control and 120 % cage control
[1]; No Serum + 10 μM EGCg
  Myostatin (% control): 55 % control
[1]; No Serum + 25 μM EGCg
  Myostatin (% control): 43 % control
[1]; serum starved C2C12 myotubes, EGCg 10 μM and 25 μM
  myostatin levels compared to the No Serum group (in words): significantly lower; also recorded: decrease
